The assay concerns SK-N-SH human neuroblastoma cells. Briefly: Serum Deprivation/JC-1 Mitochondrial Membrane Potential (MMP) Assay. It is filed as cell-based. The note with it: for EC50: serum deprivation ~18 hours, JC-1 ratio normalized to peak value for 10 μM dimebolin, single curve fit to mean data of n=2-3; for Emax / JC-1 max %: percent maximal intensity in JC-1 ratio normalized to peak value for 10 μM dimebolin; for Emax / activation at 3 µM / JC-1 max %: serum deprivation; for Emax: read-out: JC-1 max %; for activation at 3 µM: single dose 3 μM, JC-1 ratio normalized to peak value for 10 μM dimebolin (n=2-4), read-out: JC-1 max % (@ 3 μM). The essentials: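 SK-N-SH cells serum-deprived ~18 h with compound, then stained with JC-1 for 40 min at 37 °C; red (560/595 nm) to green (485/535 nm) ratio reports membrane potential. Response normalized to peak from 10 μM dimebolin; EC50 from fit to mean of n=2–3, or single-dose 3 μM; DMSO ≤1%.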

For the molecule `O=C(Cc1ccc(Cl)nc1)N1Cc2ccccc2N2CCN(Cc3ccccc3)CC2C1` (stereo not shown) [Example 60, 1-(3-benzyl-1,2,3,4,4a,5-hexahydropyrazino[1,2-a][1,4]benzodiazepin-6(7H)-yl)-2-(6-chloropyridin-3-yl)ethanone], the EC50 (in general, the concentration at which the effect is half-maximal) (Homo sapiens, SK-N-SH, 18 h) came to 4.14 µM. For the same molecule, for the setting “Homo sapiens, SK-N-SH”, the Emax stood at 224%.

For `O=C(C1CC1)N1Cc2ccccc2N2CCN(Cc3ccccc3)CC2C1` (stereo not shown) [Example 112, (3-benzyl-1,2,3,4,4a,5-hexahydropyrazino[1,2-a][1,4]benzodiazepin-6(7H)-yl)(cyclopropyl)methanone], the EC50 (Homo sapiens, SK-N-SH, 18 h) is 4.67 µM. In addition, the Emax (Homo sapiens, SK-N-SH) was 139%.

Turning to `CN1CCN2c3ccccc3CN(C(=O)c3cccc(Cl)c3)CC2C1` (stereo not shown) [Example 175, (3-chlorophenyl)(3-methyl-1,2,3,4,4a,5-hexahydropyrazino[1,2-a][1,4]benzodiazepin-6(7H)-yl)methanone], under “Homo sapiens”, the activation at 3 µM is 40%.

As for `CN1CCN2c3ccccc3CN(C(=O)N3CCOCC3)CC2C1` (stereo not shown) [Example 77, (3-methyl-1,2,3,4,4a,5-hexahydropyrazino[1,2-a][1,4]benzodiazepin-6(7H)-yl)(morpholin-4-yl)methanone], the half-maximal effective concentration (EC50) (Homo sapiens, SK-N-SH, 18 h) was 10.2 µM. For the same molecule, for the setting “Homo sapiens, SK-N-SH”, the Emax worked out at 57%.

With `O=C(C1CC1)N1CCC2CNCCN2c2ncccc21` (stereo not shown) [Example 72, cyclopropyl(7,7a,8,9,10,11-hexahydropyrazino[1,2-d]pyrido[3,2-b][1,4]diazepin-5(6H)-yl)methanone], the EC50 (Homo sapiens, SK-N-SH, 18 h) is 13.3 µM. Moreover, the Emax (Homo sapiens, SK-N-SH) was 98%.

In the case of `NCCc1cn(C(=O)N2Cc3ccccc3N3CCN(Cc4ccccc4)CC3C2)cn1` (stereo not shown) [Example 154, [4-(2-aminoethyl)-1H-imidazol-1-yl](3-benzyl-1,2,3,4,4a,5-hexahydropyrazino[1,2-a][1,4]benzodiazepin-6(7H)-yl)methanone], where the note is “Homo sapiens”, the activation at 3 µM amounted to 49%.

With `Fc1ccc(CN2CCN3c4ccccc4CNCC3C2)cc1` (stereo not shown) [Example 40, 3-(4-fluorobenzyl)-1,2,3,4,4a,5,6,7-octahydropyrazino[1,2-a][1,4]benzodiazepine], the EC50 (Homo sapiens, SK-N-SH, 18 h) came out at 11.8 µM. Further, the Emax (Homo sapiens, SK-N-SH) is 224%.

For the molecule `Fc1cc(F)cc(CN2Cc3ccccc3N3CCN(Cc4ccccc4)CC3C2)c1` (stereo not shown) [Example 24, 3-benzyl-6-(3,5-difluorobenzyl)-1,2,3,4,4a,5,6,7-octahydropyrazino[1,2-a][1,4]benzodiazepine], the EC50 (Homo sapiens, SK-N-SH, 18 h) was found to be 4.77 µM. Also, the Emax (Homo sapiens, SK-N-SH) worked out at 166%.

Consider `c1ccc(CN2CCN3c4ccccc4CN(Cc4ccc5ccccc5n4)CC3C2)cc1` (stereo not shown) [Example 126, 3-benzyl-6-(quinolin-2-ylmethyl)-1,2,3,4,4a,5,6,7-octahydropyrazino[1,2-a][1,4]benzodiazepine], for which, under “Homo sapiens, SK-N-SH, 18 h”, the EC50 was 1.89 µM. The Emax (Homo sapiens, SK-N-SH) amounted to 150%.

On to `c1ccc(CN2CCN3c4ccccc4CN(CC4CCCCC4)CC3C2)cc1` (stereo not shown) [Example 144, 3-benzyl-6-(cyclohexylmethyl)-1,2,3,4,4a,5,6,7-octahydropyrazino[1,2-a][1,4]benzodiazepine], for which the EC50 (Homo sapiens, SK-N-SH, 18 h) amounted to 3.63 µM. Moreover, the Emax (Homo sapiens, SK-N-SH) was 132%.

Regarding `O=C(NCc1cccnc1)N1Cc2ccccc2N2CCN(Cc3ccccc3)CC2C1` (stereo not shown) [Example 163, 3-benzyl-N-(pyridin-3-ylmethyl)-1,2,3,4,4a,5-hexahydropyrazino[1,2-a][1,4]benzodiazepine-6(7H)-carboxamide], the activation at 3 µM (Homo sapiens) was 183%.

Regarding `O=C1C2CN(Cc3ccc(F)cc3)CCN2c2ccccc2CN1Cc1ccc(Br)cc1` (stereo not shown) [Example 73, 6-(4-bromobenzyl)-3-(4-fluorobenzyl)-2,3,4,4a,6,7-hexahydropyrazino[1,2-a][1,4]benzodiazepin-5(1H)-one], the EC50 (Homo sapiens, SK-N-SH, 18 h) was 4.27 µM. For the same molecule, the Emax (Homo sapiens, SK-N-SH) is 229%.

For `Fc1ccc(CN2CCN3c4ncccc4N(C[C@@H]4CCN4)CCC3C2)cc1` (stereo partly drawn) [Example 68, 5-[(2S)-azetidin-2-ylmethyl]-9-(4-fluorobenzyl)-5,6,7,7a,8,9,10,11-octahydropyrazino[1,2-d]pyrido[3,2-b][1,4]diazepine], under “Homo sapiens, SK-N-SH, 18 h”, the EC50 was 8.64 µM. Under “Homo sapiens, SK-N-SH”, the Emax amounted to 157%.

Turning to `Brc1ccc(CN2Cc3ccccc3N3CCN(Cc4ccccc4)CC3C2)cc1` (stereo not shown) [Example 123, 3-benzyl-6-(4-bromobenzyl)-1,2,3,4,4a,5,6,7-octahydropyrazino[1,2-a][1,4]benzodiazepine], the JC-1 max % turned out to be 186% and the half-maximal effective concentration (EC50) amounted to 3.44 µM.

On to `O=C(NCC(=O)N1Cc2ccccc2N2CCN(Cc3ccccc3)CC2C1)c1ccco1` (stereo not shown) [Example 99, N-[2-(3-benzyl-1,2,3,4,4a,5-hexahydropyrazino[1,2-a][1,4]benzodiazepin-6(7H)-yl)-2-oxoethyl]-2-furamide], for which the EC50 (Homo sapiens, SK-N-SH, 18 h) turned out to be 3.15 µM. Besides, the Emax (Homo sapiens, SK-N-SH) stood at 165%.

With `c1ccc(CN2CCN3c4ccccc4CN(CC4CCCC4)CC3C2)cc1` (stereo not shown) [Example 125, 3-benzyl-6-(cyclopentylmethyl)-1,2,3,4,4a,5,6,7-octahydropyrazino[1,2-a][1,4]benzodiazepine], where the note is “Homo sapiens, SK-N-SH, 18 h”, the EC50 was 4.26 µM. Also, the Emax (Homo sapiens, SK-N-SH) was found to be 98%.

With `Cc1cc(C(=O)N2Cc3ccccc3N3CCN(Cc4ccccc4)CC3C2)c(C)[nH]1` (stereo not shown) [Example 96, (3-benzyl-1,2,3,4,4a,5-hexahydropyrazino[1,2-a][1,4]benzodiazepin-6(7H)-yl)(2,5-dimethyl-1H-pyrrol-3-yl)methanone], under “Homo sapiens, SK-N-SH, 18 h”, the EC50 stood at 0.856 µM. Also, the Emax (Homo sapiens, SK-N-SH) is 180%.

As for `CC(C)(C)CN1Cc2ccccc2N2CCN(Cc3ccccc3)CC2C1` (stereo not shown) [Example 141, 3-benzyl-6-(2,2-dimethylpropyl)-1,2,3,4,4a,5,6,7-octahydropyrazino[1,2-a][1,4]benzodiazepine], the activation at 3 µM (Homo sapiens) worked out at 12%.

Regarding `O=C(N1CCOCC1)N1Cc2ccccc2N2CCN(Cc3ccccc3)CC2C1` (stereo not shown) [Example 14, (3-benzyl-1,2,3,4,4a,5-hexahydropyrazino[1,2-a][1,4]benzodiazepin-6(7H)-yl)(morpholin-4-yl)methanone], the 50% effective concentration (EC50) (Homo sapiens, SK-N-SH, 18 h) was determined as 0.754 µM. For the same molecule, for the setting “Homo sapiens, SK-N-SH”, the Emax is 203%.

`N#Cc1cccc(CN2Cc3ccccc3N3CCN(Cc4ccccc4)CC3C2)c1` (stereo not shown) [Example 146, 3-[(3-benzyl-1,2,3,4,4a,5-hexahydropyrazino[1,2-a][1,4]benzodiazepin-6(7H)-yl)methyl]benzonitrile]: under “Homo sapiens, SK-N-SH, 18 h”, the EC50 amounted to 2.2 µM. Also, for the setting “Homo sapiens, SK-N-SH”, the Emax was determined as 182%.

In the case of `O=C(CCN1CCCC1)N1Cc2ccccc2N2CCN(Cc3ccccc3)CC2C1` (stereo not shown) [Example 91, 1-(3-benzyl-1,2,3,4,4a,5-hexahydropyrazino[1,2-a][1,4]benzodiazepin-6(7H)-yl)-3-(pyrrolidin-1-yl)propan-1-one], the activation at 3 µM (Homo sapiens) amounted to 78%.

In the case of `c1ccc(CN2CCN3c4ccccc4CNCC3C2)cc1` (stereo not shown) [Example 2, 3-benzyl-1,2,3,4,4a,5,6,7-octahydropyrazino[1,2-a][1,4]benzodiazepine], the EC50 (Homo sapiens, SK-N-SH, 18 h) worked out at 3.44 µM. Also, the Emax (Homo sapiens, SK-N-SH) was found to be 186%.

On to `Brc1ccc(CN2Cc3ccccc3N3CCN(Cc4ccccc4)CC3C2)cc1` (stereo not shown) [Example 3, 3-benzyl-6-(4-bromobenzyl)-1,2,3,4,4a,5,6,7-octahydropyrazino[1,2-a][1,4]benzodiazepine], for which the JC-1 max % is on record as 226% and the EC50 amounted to 2.88 µM.

With `Clc1ccccc1CN1Cc2ccccc2N2CCN(Cc3ccccc3)CC2C1` (stereo not shown) [Example 139, 3-benzyl-6-(2-chlorobenzyl)-1,2,3,4,4a,5,6,7-octahydropyrazino[1,2-a][1,4]benzodiazepine], the EC50 (Homo sapiens, SK-N-SH, 18 h) came out at 3.18 µM. In addition, the Emax (Homo sapiens, SK-N-SH) came out at 145%.

Source of the values: US9133206B2, “Benzodiazepine and pyridodiazepine derivatives” (AbbVie Inc., priority 2010, dated 2015).
